Test results from US11578136B2, “Compositions and methods for treating cancer” (INNATE PHARMA, priority 2017, dated 2023).

How the values were obtained:
[1] = system: monocyte-derived DC (moDC); assay: Activation of dendritic cells in presence of ATP (flow cytometry); type: cell-based, human; settings: ATP at 0.125 mM, 0.25 mM or 0.5 mM; I-394 at 10 μg/ml
Method: While ATP has pro-inflammatory, CD39-mediated catabolism of ATP is believed to be able to impair dendritic cell (DC) activation, in turn altering a broader adaptive immune response against tumor antigen. In order to evaluate whether CD39 blockade using anti-CD39 antibodies could overcome CD39-mediated alteration of dendritic cell (DC) activation in the presence of ATP, we incubated monocyte-derived DC (moDC) with anti-CD39 antibodies in the presence of ATP.
Briefly, human monocytes were purified from human healthy blood and differentiated into MoDC in presence of GM-CSF and IL-4 during 6 days. […] In some cases, MoDC were preincubated during 1 hours in presence of CD39 inhibitor: […] (Tocris, 250 μM), CD73 inhibitor: APCP (Tocris 50 μM), anti-CD39 blocking antibody I-394 or BY40 (for BY40 see WO2009/095478), or anti-CD73 blocking antibodies. LPS (Invivogen, 10 ng/ml) was used as positive control. To assess resulting effect of ATP-mediated DC activation on CD4 T cells activation, ATP-activated DC were washed and then incubated with allogenic CD4 T cells (ratio 1 MoDC/4 T cells) for a mixed lymphocytes reaction (MLR) during 5 days. T cells activation and proliferation were analyzed through CD25 expression and Cell Trace Violet dilution by flow cytometry (FIG. 8).

[2] = biological target: T1, Human CD39-L4 (NTPDase5, ENTPD5) (Homo sapiens, UniProt O75356); assay: ELISA titration on CD39-L4; type: binding; settings: result in words
T1 sequence (O75356 25-428): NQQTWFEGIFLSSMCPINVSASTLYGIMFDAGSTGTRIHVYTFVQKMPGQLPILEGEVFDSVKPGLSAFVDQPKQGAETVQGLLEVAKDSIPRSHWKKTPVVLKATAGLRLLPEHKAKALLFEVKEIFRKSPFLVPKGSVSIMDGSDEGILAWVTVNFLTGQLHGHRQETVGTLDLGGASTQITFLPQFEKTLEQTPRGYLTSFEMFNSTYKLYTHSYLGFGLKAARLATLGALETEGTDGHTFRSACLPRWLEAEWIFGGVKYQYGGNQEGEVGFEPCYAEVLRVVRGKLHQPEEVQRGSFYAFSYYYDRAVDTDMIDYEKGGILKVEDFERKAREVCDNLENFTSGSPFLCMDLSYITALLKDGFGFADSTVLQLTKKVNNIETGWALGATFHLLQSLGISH
Method: Antibody I-394 was tested for binding to recombinant human CD39 isoforms (Rec-huCD39 isoforms) having amino acid sequences shown below were coated in 96-well plate in PBS 1× at 500 ng/ml or 1 μg/ml at 4° C. overnight. Wells were washed in TBS Tween 20, and further saturated 2H at RT in TBS Blocking buffer. Dose range concentration of primary antibody was incubated in TBS blocking buffer for 2 h at RT. Wells were washed in TBS Tween 20. […] Optical density was measured on Enspire™ at OD=450.

[3] = system: CHO cells expressing cynomolgus (Macaca fascicularis) CD39; assay: Antibody titration on CHO-cyCD39 by flow cytometry; type: binding; settings: result in words
Method: (§1) Antibody I-394 was tested in two repeated experiments for binding to CHO cells expressing human CD39, CHO cells expressing cynomolgus (Macaca fascicularis) CD39, CHO cells expressing murine CD39, and human Ramos lymphoma cells (ATCC™, reference CRL-1596). Cells were incubated with various concentration of unlabeled anti-CD39 antibody from 30 μg/ml to 5×10^−4 μg/ml, for 30 minutes at 4° C. After washes, cells were incubated with Goat anti-mouse H+L labeled secondary antibody for 30 min at 4° C.

[4] = system: allogenic CD4 T cells; assay: Mixed lymphocytes reaction (MLR) with ATP-activated DC; type: cell-based, human; settings: MoDC activated with ATP plus antibody; 5 days
Method: Briefly, human monocytes were purified from human healthy blood and differentiated into MoDC in presence of GM-CSF and IL-4 during 6 days. Then MoDC were activated in presence of ATP (Sigma, 0.25-1 mM) during 24 hours and DC activation were assessed by analyzing CD80, CD83 and HLA-DR expression by flow cytometry. In some cases, MoDC were preincubated during 1 hours in presence of CD39 inhibitor: […] (Tocris, 250 μM), CD73 inhibitor: APCP (Tocris 50 μM), anti-CD39 blocking antibody I-394 or BY40 (for BY40 see WO2009/095478), or anti-CD73 blocking antibodies. LPS (Invivogen, 10 ng/ml) was used as positive control. To assess resulting effect of ATP-mediated DC activation on CD4 T cells activation, ATP-activated DC were washed and then incubated with allogenic CD4 T cells (ratio 1 MoDC/4 T cells) for a mixed lymphocytes reaction (MLR) during 5 days. T cells activation and proliferation were analyzed through CD25 expression and Cell Trace Violet dilution by flow cytometry (FIG. 8).

[5] = biological target: T2, human Ramos lymphoma cells (CD39) (Homo sapiens, UniProt P49961); assay: Antibody titration on Ramos cells by flow cytometry; type: binding; settings: result in words
T2 construct: host or cells: Ramos human lymphoma cells
T2 sequence (P49961 1-510): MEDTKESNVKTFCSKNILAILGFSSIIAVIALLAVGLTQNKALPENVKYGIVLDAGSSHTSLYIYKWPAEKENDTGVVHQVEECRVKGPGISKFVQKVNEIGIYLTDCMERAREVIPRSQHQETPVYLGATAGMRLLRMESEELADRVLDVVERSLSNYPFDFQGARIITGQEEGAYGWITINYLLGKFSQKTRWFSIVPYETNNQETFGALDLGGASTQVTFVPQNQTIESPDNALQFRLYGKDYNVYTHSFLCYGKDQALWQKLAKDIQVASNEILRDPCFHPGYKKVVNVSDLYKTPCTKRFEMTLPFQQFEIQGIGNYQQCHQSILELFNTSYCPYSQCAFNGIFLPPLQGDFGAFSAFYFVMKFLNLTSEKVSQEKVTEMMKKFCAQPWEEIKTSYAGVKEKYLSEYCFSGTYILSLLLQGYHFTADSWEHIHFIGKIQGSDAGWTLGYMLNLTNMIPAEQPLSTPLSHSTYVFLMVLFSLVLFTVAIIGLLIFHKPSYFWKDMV
Method: as §1

I-394: anti-CD39 antibody, VH SEQ ID NO: 6, VL SEQ ID NO: 7; human IgG1 Fc with L234A/L235E/G237A/A330S/P331S
ATP-induced moDC activation as assessed by HLA-DR or CD83 expression [1]: permitted moDC activation
binding to CD39-L4 in ELISA [2]: not
binding to cells expressing cynomolgus CD39 (CHO-cyCD39) [3]: bound
T cells proliferation and activation in MLR (CD25 expression, Cell Trace Violet dilution) [4]: higher T cells proliferation and activation
binding to Ramos lymphoma cells [5]: bound
